Values after ≈ are worked out from the molar mass of the structure shown. Where a SMILES comes first, the peptide text is derived from it. [ ]: non-standard residue; d: D form.
Experiments:
[1] = test system: MDREC 1238; assay type: cell-based, Escherichia coli
How it was run: (§1)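 Broth microdilution in MH medium: bacterial strains diluted to 2×10^6 CFU were mixed with equal volumes of peptide serially diluted twofold in MH medium.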

[2] = test system: P. aeruginosa; assay: microbe, parasite or virus in culture; assay type: cell-based, Pseudomonas aeruginosa
How it was run: as §1

[3] = test system: MDRPA 2002; assay type: cell-based, Pseudomonas aeruginosa
How it was run: as §1

[4] = test system: MDRPA 2003; assay type: cell-based, Pseudomonas aeruginosa
How it was run: as §1

[5] = test system: A. baumannii; assay: microbe, parasite or virus in culture; assay type: cell-based, Acinetobacter baumannii
How it was run: as §1

[6] = test system: MDRAB 12035; assay: microbe, parasite or virus in culture; assay type: cell-based, Acinetobacter baumannii
How it was run: as §1

[7] = test system: MDRAB 12036; assay type: cell-based, Acinetobacter baumannii
How it was run: as §1

[8] = test system: S. typhimurium; assay: microbe, parasite or virus in culture; assay type: cell-based, Salmonella typhimurium
How it was run: as §1

[9] = test system: MDRST 8007; assay: Minimal inhibitory concentration (MIC), single agent; assay type: cell-based, Salmonella typhimurium; conditions: agent alone
How it was run: as §1

[10] = test system: B. subtilis; assay: microbe, parasite or virus in culture; assay type: cell-based, Bacillus subtilis
How it was run: as §1

[11] = test system: S. epidermidis; assay: microbe, parasite or virus in culture; assay type: cell-based, Staphylococcus epidermidis
How it was run: as §1

[12] = test system: S. aureus; assay: microbe, parasite or virus in culture; assay type: cell-based, Staphylococcus aureus
How it was run: as §1

[13] = test system: MRSA 3114; assay type: cell-based, Staphylococcus aureus; conditions: 3114
How it was run: as §1

[14] = test system: MRSA 3126; assay type: cell-based, Staphylococcus aureus; conditions: 3126
How it was run: as §1

[15] = test system: MDREC 1229; assay: MIC of antibiotic during combined treatment with antimicrobial peptide; assay type: cell-based, Escherichia coli
How it was run: (§2)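 Antibiotic MIC came from antibiotic dilutions added to bacteria (2×10^6 CFU/ml, MH medium) already combined with peptide serially diluted 2:1 from its own MIC. Swapping the roles of the two agents gave the peptide MIC.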

[16] = test system: MDRAB 12035; assay: as above; assay type: cell-based, Acinetobacter baumannii
How it was run: as §2

[17] = peptide treatment concentration 1 μg/ml
[18] = peptide treatment concentration 2 μg/ml
[19] = peptide treatment concentration 4 μg/ml
[20] = peptide treatment concentration 6 μg/ml
[21] = peptide treatment concentration 8 μg/ml
[22] = peptide treatment concentration 16 μg/ml
[23] = peptide treatment concentration 32 μg/ml
[24] = peptide treatment concentration 64 μg/ml

CC[C@H](C)[C@H](NC(=O)[C@H](CCCCN)NC(=O)[C@H](Cc1c[nH]c2ccccc12)NC(=O)[C@@H](N)CCCNC(=N)N)C(=O)N[C@@H](Cc1ccccc1)C(=O)N[C@@H](CCCCN)C(=O)N[C@@H](CCCCN)C(=O)N[C@H](C(=O)N[C@H](CCCCN)C(=O)N[C@@H](CCCCN)C(=O)N[C@@H](CC(C)C)C(=O)N[C@@H](CC(C)C)C(=O)N[C@@H](Cc1c[nH]cn1)C(=O)N[C@@H](CO)C(=O)N[C@@H](Cc1ccccc1)C(=O)N[C@@H](CCCCN)C(=O)N[C@@H](CCCCN)C(=O)N[C@@H](Cc1ccccc1)C(N)=O)[C@@H](C)CC [PapMA-15, RWK IFK KIk KLL HSF KKF-NH2] (H-RWKIFKKI[dK]KLLHSFKKF-NH2; N-terminus assumed)
Minimal inhibitory concentration MIC [1]: 32 µg/mL (≈ 13.5 µM)
Minimal inhibitory concentration MIC [2]: 32 µg/mL (≈ 13.5 µM)
Minimal inhibitory concentration MIC [3]: 32 µg/mL (≈ 13.5 µM)
Minimal inhibitory concentration MIC [4]: 32 µg/mL (≈ 13.5 µM)
Minimal inhibitory concentration MIC [5]: 32 µg/mL (≈ 13.5 µM)
Peptide MIC, peptide alone [5]: 32 µg/mL
Antibacterial activity relative to PapMA-1 ([5]; A. baumannii and S. typhimurium): at least twice as high
Minimal inhibitory concentration MIC [6]: 32 µg/mL (≈ 13.5 µM)
Peptide MIC, peptide alone [6]: 32 µg/mL
Minimal inhibitory concentration MIC [7]: 32 µg/mL (≈ 13.5 µM)
Minimal inhibitory concentration MIC [8]: 32 µg/mL (≈ 13.5 µM)
Minimal inhibitory concentration MIC [9]: 64 µg/mL (≈ 26.9 µM)
Minimal inhibitory concentration MIC [10]: >128 µg/mL
Minimal inhibitory concentration MIC [11]: >128 µg/mL
Minimal inhibitory concentration MIC [12]: >128 µg/mL
Minimal inhibitory concentration MIC [13]: >128 µg/mL
Minimal inhibitory concentration MIC [14]: >128 µg/mL
Antibiotic MIC, Erythromycin [15, 17]: >128 µg/mL
Antibiotic MIC, Linezolid [15, 17]: >128 µg/mL
Antibiotic MIC, Vancomycin [15, 17]: >128 µg/mL
Antibiotic MIC, Erythromycin [15, 18]: 32 µg/mL
Antibiotic MIC, Linezolid [15, 18]: 128 µg/mL
Antibiotic MIC, Vancomycin [15, 18]: >128 µg/mL
Antibiotic MIC, Erythromycin [15, 19]: 16 µg/mL
Antibiotic MIC, Linezolid [15, 19]: 64 µg/mL
Antibiotic MIC, Vancomycin [15, 19]: >128 µg/mL
Antibiotic MIC, Erythromycin [15, 20]: 8 µg/mL
Antibiotic MIC, Linezolid [15, 20]: 64 µg/mL
Antibiotic MIC, Vancomycin [15, 20]: 64 µg/mL
Antibiotic MIC, Erythromycin [15, 21]: 4 µg/mL
Antibiotic MIC, Linezolid [15, 21]: 32 µg/mL
Antibiotic MIC, Vancomycin [15, 21]: 32 µg/mL
Antibiotic MIC, Erythromycin [15, 22]: 1 µg/mL
Antibiotic MIC, Linezolid [15, 22]: 16 µg/mL
Antibiotic MIC, Vancomycin [15, 22]: 16 µg/mL
Antibiotic MIC, Erythromycin [15, 23]: 0 µg/mL
Antibiotic MIC, Linezolid [15, 23]: 0 µg/mL
Antibiotic MIC, Vancomycin [15, 23]: 0 µg/mL
Antibiotic MIC, Erythromycin [15, 24]: 0 µg/mL
Antibiotic MIC, Linezolid [15, 24]: 0 µg/mL
Antibiotic MIC, Vancomycin [15, 24]: 0 µg/mL
Erythromycin MIC during combined treatment with peptide [16, 17]: 32 µg/mL
Linezolid MIC during combined treatment with peptide [16, 17]: >128 µg/mL
Vancomycin MIC during combined treatment with peptide [16, 17]: >128 µg/mL
Erythromycin MIC during combined treatment with peptide [16, 18]: 32 µg/mL
Linezolid MIC during combined treatment with peptide [16, 18]: >128 µg/mL
Vancomycin MIC during combined treatment with peptide [16, 18]: >128 µg/mL
Erythromycin MIC during combined treatment with peptide [16, 19]: 16 µg/mL
Linezolid MIC during combined treatment with peptide [16, 19]: 64 µg/mL
Vancomycin MIC during combined treatment with peptide [16, 19]: 128 µg/mL
Erythromycin MIC during combined treatment with peptide [16, 20]: 2 µg/mL
Linezolid MIC during combined treatment with peptide [16, 20]: 64 µg/mL

— US11214594B2, “Antimicrobial peptide having synergistic antibacterial effect with antibiotics on multidrug resistant bacteria, and use thereof” (priority 2016, dated 2022)
